Marks after values point to notes of the source that are not given here.
Experiments:
[1] = test system: motor balance and coordination; test: Motor balance and coordination, modified beam walking method; details: mice, n=10
Description: Motor balance and coordination were tested using a modified beam walking method. Mice were put on a smooth beam tilted at an angle of 70 degree. Mice passed the test by standing on the beam for 0.5 minute without falling off. All the mice were pre-screened before the studies, and a total of 110 mice were selected by passing the beam test in 3 consecutive tries. The selected mice were divided into 11 groups with 10 mice in each group (half male and half female). At certain time points after drug administration, mice were tested on the beam for 3 consecutive times. A mouse was counted as failing to the test if it fell off the beam for 2 or more times.
The dose volume was 0.2 mL/10 gram and infusion rate was 0.2 mL/10 seconds. Chlorpromazine was used as the positive control.

[2] = test system: thiopental-induced hypnosis; test: Effects on thiopental-induced hypnosis; details: mice, 30 min before sodium thiopental 40 mg/kg IP, Mean ± SD, n=10
Description: A total of 70 mice were divided into 7 groups with 10 mice in each group (half male and half female), and animals were fasted for 8 hours before study. Vehicle control and ornidazole enantiomers were injected intraperitoneal (IP), after 30 minutes, sodium thiopental was then given IP: at 40 mg/kg.
Levo-, dextro-ornidazole and racemate are studied and compared in 6 treatment groups at 2 different dose levels of 40 and 80 mg/kg. The dose volume is 0.2 mL/10 gram and infusion rate is 0.2 mL/10 seconds.

[3] = Phase I clinical trials, intravenous, adverse events; type: in vivo; details: human phase I, 1.0 g, I.V., qd × 1d
Description: The clinical trials were conducted to test if the toxicities observed in animal models would correlate with the adverse effects in humans. Double-blinded, randomized controlled human phase I and phase II clinical trials were carried out to compare L-ornidazole with racemate in both intravenous (I.V.) and oral formulations. L-ornidazole caused remarkably less adverse events (related to nervous system) than the racemate in both I.V. and oral routes. Such adverse drug events may cause non-compliance in patients being treated, which could be dangerous for life-threatening infections.

[4] = test system: spontaneous activities of mice; test: Effects on spontaneous activities of mice; details: Mean ± SD, n=10
Description: Mice weighing 18-22 g, half male and half female, were placed in the laboratory 24 hours before the test to adapt to the environment. The room temperature was controlled at 24±2° C. Animals were fasted for 8 hours before testing, and then placed in a transparent cage. The number of spontaneous activities of mice was counted by an automatic device (model XZ-4 by Drug Research Institute of China Academy of Medical Sciences). Mice were pre-screened by counting their spontaneous activities for five minutes and unqualified mice were excluded. A total of 110 mice were selected and divided into 11 groups with 10 mice in each group.
Chlorpromazine (3 mg/kg) was used as the positive control. The dose volume was 0.2 mL/10 gram and infusion rate was 0.2 mL/10 seconds.

For `Cc1ncc([N+](=O)[O-])n1CC(O)CCl` (racemic) [Racemic ornidazole, 1-(3-Chloro-2-hydroxypropyl)-2-methyl-5-nitroimidazole], the “Number of Animals Fall Off” value ([1]; 40 mg/kg, 0.5 hours post-dose) was 1, the “Number of Animals Fall Off” value ([1]; 40 mg/kg, 1 hours post-dose) was 0 and the “Number of Animals Fall Off” value ([1]; 40 mg/kg, 2 hours post-dose) was 0. The “Number of Animals Fall Off” value ([1]; 40 mg/kg, 3 hours post-dose) was 0, the “Number of Animals Fall Off” value ([1]; 40 mg/kg, 4 hours post-dose) was 0 and the “Number of Animals Fall Off” value ([1]; 80 mg/kg, 0.5 hours post-dose) was 0. For the same compound, the “Number of Animals Fall Off” value ([1]; 80 mg/kg, 1 hours post-dose) was 0, the “Number of Animals Fall Off” value ([1]; 80 mg/kg, 2 hours post-dose) was 2 and the “Number of Animals Fall Off” value ([1]; 80 mg/kg, 3 hours post-dose) was 0. The “Number of Animals Fall Off” value ([1]; 80 mg/kg, 4 hours post-dose) was 0, the “Number of Animals Fall Off” value ([1]; 160 mg/kg, 0.5 hours post-dose) was 10## and the “Number of Animals Fall Off” value ([1]; 160 mg/kg, 1 hours post-dose) was 8##. The “Number of Animals Fall Off” value ([1]; 160 mg/kg, 2 hours post-dose) was 6, the “Number of Animals Fall Off” value ([1]; 160 mg/kg, 3 hours post-dose) was 4 and the “Number of Animals Fall Off” value ([1]; 160 mg/kg, 4 hours post-dose) was 3. The “Sleeping Time” value ([2]; 40 mg/kg IP) was 74.0 ± 51.3 min, the “Time to Lose Righting Reflex” value ([2]; 40 mg/kg IP) was 2.1 ± 0.3 min and the “Sleeping Time” value ([2]; 80 mg/kg IP) was 106.6 ± 99.2 min. For the same compound, the “Time to Lose Righting Reflex” value ([2]; 80 mg/kg IP) was 1.9 ± 0.4 min, the “# of Patients Reporting Adverse Events/Total Patients” value [3] was 5/10 and the “Spontaneous Activities (per 5 min)” value ([4]; 40 mg/kg i.v., 0.5 h post-dose) was 79 ± 26 per 5 min. The “Spontaneous Activities (per 5 min)” value ([4]; 40 mg/kg i.v., 1 h post-dose) was 56 ± 37 per 5 min, the “Spontaneous Activities (per 5 min)” value ([4]; 40 mg/kg i.v., 2 h post-dose) was 63 ± 23 per 5 min and the “Spontaneous Activities (per 5 min)” value ([4]; 40 mg/kg i.v., 3 h post-dose) was 62 ± 24 per 5 min. For the same compound, the “Spontaneous Activities (per 5 min)” value ([4]; 40 mg/kg i.v., 4 h post-dose) was 72 ± 35 per 5 min, the “Spontaneous Activities (per 5 min)” value ([4]; 80 mg/kg i.v., 0.5 h post-dose) was 48 ± 35 per 5 min and the “Spontaneous Activities (per 5 min)” value ([4]; 80 mg/kg i.v., 1 h post-dose) was 26 ± 19 per 5 min. The “Spontaneous Activities (per 5 min)” value ([4]; 80 mg/kg i.v., 2 h post-dose) was 32 ± 21 per 5 min, the “Spontaneous Activities (per 5 min)” value ([4]; 80 mg/kg i.v., 3 h post-dose) was 55 ± 27 per 5 min and the “Spontaneous Activities (per 5 min)” value ([4]; 80 mg/kg i.v., 4 h post-dose) was 61 ± 20 per 5 min. For the same compound, the “Spontaneous Activities (per 5 min)” value ([4]; 160 mg/kg i.v., 0.5 h post-dose) was 29 ± 17 per 5 min, the “Spontaneous Activities (per 5 min)” value ([4]; 160 mg/kg i.v., 1 h post-dose) was 22 ± 14 per 5 min and the “Spontaneous Activities (per 5 min)” value ([4]; 160 mg/kg i.v., 2 h post-dose) was 21 ± 12 per 5 min. The “Spontaneous Activities (per 5 min)” value ([4]; 160 mg/kg i.v., 3 h post-dose) was 30 ± 13 per 5 min and the “Spontaneous Activities (per 5 min)” value ([4]; 160 mg/kg i.v., 4 h post-dose) was 51 ± 23 per 5 min.

From patent US20130202698A1 (NANJING SANHOME PHARMACEUTICAL CO., LTD., priority 2005, published 2013)
